Laboratory results reported in patent publication US4207339A, “Anti-ulcer pharmaceutical composition containing inositol hexasulfate or an alkaline metal salt thereof as active ingredient” (Mitsui Toatsu Chemicals, Incorporated, priority 1978, dated 1980).
Where a name gives a salt, the structure may show the parent alone. Read-outs that look alike come from different tables or passages of the source.

Tests used:
Gastric Juice Secretion = experiment: Effect on gastric juice secretion (pyloric ligation); assay type: in vivo, Male rats of the Donryu strain; conditions: 250 mg/kg, p.o.; 4 hours; control 4.9 ± 0.4; significant at 5% level
Protocol: (§1) Male rats of the Donryu strain, 11 weeks of age, were used in groups of ten. After 24 hours of fasting, the pyloric part of the stomach was ligated. Four hours later, the gastric juice was collected and its volume was measured. Then, its acidity was determined by titrating an aliquot of the gastric juice with 0.05 N sodium hydroxide. Further, the activity of pepsin was determined by Anson's method. A definite amount (250 mg/kg) of a compound to be tested was orally administered immediately after the pyloric ligation.

Gastric Juice Acidity = experiment: Effect on gastric juice acidity (pyloric ligation, titration with 0.05 N sodium hydroxide); assay type: in vivo, Male rats of the Donryu strain; conditions: 250 mg/kg, p.o.; 4 hours; control 92.5 ± 3.7; significant at 5% level
Protocol: as §1

pepsin = experiment: Effect on pepsin activity (pyloric ligation, Anson's method); assay type: in vivo, Male rats of the Donryu strain; conditions: 250 mg/kg, p.o.; 4 hours; control 7.4 ± 0.5; significant at 1% level
Protocol: as §1

Shay's Ulcer = experiment: Anti-ulcer effect: Shay's ulcer (pyloric ligation); assay type: in vivo, Male rats of the Wistar strain; conditions: p.o., 12 hours, vs control U.I.
Protocol: (§2) The anti-ulcer effect of some compounds of this invention was evaluated with regard to various types of experimental gastric and duodenal ulcers. The method of evaluation for each type of ulcer is outlined below.
Male rats of the Wistar strain, 7 or 8 weeks of age, were used in groups of ten. After 48 hours of fasting, the pyloric part of the stomach was ligated under ether anesthesia. Immediately after the operation, a certain amount of a compound to be tested was orally administered to each animal of a group. After 12 hours, the degree of ulceration occurring in the anterior part of the stomach was rated and regarded as an ulcer index (U.I.). Control rats were treated in the same manner as described above, except that they received no compounds to be tested. The results given in Table 1 are expressed in terms of the percentage of inhibition based on the U.I. obtained in the control group.

Aspirin Ulcer = experiment: Anti-ulcer effect: aspirin ulcer; assay type: in vivo, Male rats of the Donryu strain; conditions: p.o., aspirin 250 mg/kg, 6 hours
Protocol: as §2
Male rats of the Donryu strain, 10 to 11 weeks of age, were used in groups of ten. After 24 hours of fasting, a certain amount of a compound to be tested was orally administered to each animal of a group. Ten minutes later, aspirin was orally administered in a dose of 250 mg/kg. After 6 hours, the size of the ulcer formed in the glandular part of the stomach was rated by visual inspection and regarded as an ulcer index (U.I.). The results are also expressed in terms of the percentage of inhibition based on the U.I. obtained in the control group receiving no compounds to be tested.

Acetic Acid Ulcer = experiment: Anti-ulcer effect: acetic acid ulcer; assay type: in vivo, Male rats of the Wistar strain; conditions: p.o., twice a day for 7 days
Protocol: as §2
Male rats of the Wistar strain, 6 weeks of age, were used in groups of ten. Under ether anesthesia, each animal was laparotomized, a round frame (with an inside diameter of 5 mm) made of stainless steel was applied to the anterior wall of the stomach, and 100% acetic acid was poured into the frame. After 30 seconds, the acetic acid was removed and the abdomen was closed. Starting on the 7th day after the operation, a certain amount of a compound to be tested was orally administered twice a day to each animal of a group for a period of 7 days. Thereafter, the degree of healing of the ulcer was rated by visual inspection and regarded as an ulcer index (U.I.). The results are also expressed in terms of the percentage of healing based on the U.I. obtained in the control group receiving no compounds to be tested.

Stress Ulcer = experiment: Anti-ulcer effect: stress ulcer; assay type: in vivo, Male rats of the Wistar strain; conditions: p.o., stress for 16 hours, vs control U.I.
Protocol: as §2
Male rats of the Wistar strain, 8 weeks of age, were used in groups of ten. Each animal was immobilized in a stressing cage as developed by Takagi et al., immersed in water at 23° C. to the level of the xiphoid process, and thereby subjected to stress for 16 hours. Thereafter, the stomach was excised. The length of the ulcer formed in the glandular part of the stomach was measured and regarded as an ulcer index (U.I.). A certain amount of a compound to be tested was orally administered just before subjecting the animal to stress. The results are also expressed in terms of the percentage of inhibition based on the U.I. obtained in the control group receiving no compounds to be tested.

[1] = tested on: Cysteamine Duodenal Ulcer; experiment: Anti-ulcer effect: cysteamine duodenal ulcer; assay type: in vivo, Male rats of the Donryu strain; conditions: p.o., cysteamine hydrochloride 400 mg/kg, 18 hours
Protocol: as §2
(iv) Cysteamine Duodenal Ulcer
Male rats of the Donryu strain, 10 or 11 weeks of age, were used in groups of ten. After 24 hours of fasting, a certain amount of a compound to be tested was orally administered to each animal of a group. Thirty minutes later, cysteamine hydrochloride was orally administered in a dose of 400 mg/kg. After 18 hours, the product of the maximum and minimum diameters of the ulcer formed in the duodenum was determined and regarded as an ulcer index (U.I.). The results are also expressed in terms of the percentage of inhibition based on the U.I. obtained in the control group receiving no compounds to be tested.

Mouse = conditions: 7 days observation
Protocol: Male and female mice of the dd Y strain, 4 weeks of age, as well as male and female rats of the rats of the Wistar strain, 7 weeks of age, were used in groups of ten. They were preliminarily raised for a week. Then, a compound to be tested (sodium salt) was dissolved in physiological saline solution and administered orally or subcutaneously. In the case of oral administration, the highest possible doses of 0.2 ml/10 g for mice and 2 ml/100 g for rats were used which both corresponded to 5,000 mg/kg. In the case of subcutaneous administration, the doses were reduced to 1/2. […] The animals that died during this period of observation were subjected to post-mortem examination.

Rat = experiment: Acute toxicity in rats; assay type: in vivo, Male and female rats of the Wistar strain; conditions: 7 days observation
Source text: They were preliminarily raised for a week.

Compound	Amount of Gastric Juice Secreted (Gastric Juice Secretion) [mL]	Acidity of Gastric Juice (Gastric Juice Acidity) [mEq/l]	Activity of Pepsin (pepsin) [mg/mL]	percentage of inhibition (Shay's Ulcer) (Shay's Ulcer; 100 mg/kg)	percentage of inhibition (Shay's Ulcer) (Shay's Ulcer; 250 mg/kg)	percentage of inhibition (Aspirin Ulcer) (Aspirin Ulcer; 100 mg/kg)	percentage of inhibition (Aspirin Ulcer) (Aspirin Ulcer; 250 mg/kg)	percentage of healing (Acetic Acid Ulcer) (Acetic Acid Ulcer; 100 mg/kg)	percentage of healing (Acetic Acid Ulcer) (Acetic Acid Ulcer; 250 mg/kg)	percentage of inhibition (Stress Ulcer) (Stress Ulcer; 250 mg/kg)	also measured
O=S(=O)(O)OC1C(OS(=O)(=O)O)C(OS(=O)(=O)O)C(OS(=O)(=O)O)C(OS(=O)(=O)O)C1OS(=O)(=O)O (stereo not shown) [Potassium Salt, inositol hexasulfate potassium salt]	3.5 ± 0.4	60.2 ± 11.8	5.2 ± 0.4	85 percentage of inhibition	80 percentage of inhibition	46 percentage of inhibition	40 percentage of inhibition	28 percentage of healing	22 percentage of healing	25 percentage of inhibition	
O=S(=O)([O-])OC1C(OS(=O)(=O)[O-])C(OS(=O)(=O)[O-])C(OS(=O)(=O)[O-])C(OS(=O)(=O)[O-])C1OS(=O)(=O)[O-].[Na+].[Na+].[Na+].[Na+].[Na+].[Na+] (stereo not shown) [Sodium Salt, inositol hexasulfate sodium salt]	3.3 ± 0.4	58.4 ± 11.7	5.0 ± 0.4	92 percentage of inhibition	77 percentage of inhibition	44 percentage of inhibition	48 percentage of inhibition	29 percentage of healing	16 percentage of healing	27 percentage of inhibition	percentage of inhibition (Cysteamine Duodenal Ulcer) ([1]; 100 mg/kg): 37 percentage of inhibition; percentage of inhibition (Cysteamine Duodenal Ulcer) ([1]; 250 mg/kg): 46 percentage of inhibition; percentage of inhibition (Cysteamine Duodenal Ulcer) ([1]; 500 mg/kg): 77 percentage of inhibition; LD50 (Mouse; Oral): > 5,000 mg/kg; LD50 (Mouse; Subcutaneous): > 2,500 mg/kg; percentage of inhibition (Shay's Ulcer) (Shay's Ulcer; 50 mg/kg): 74 percentage of inhibition; percentage of inhibition (Aspirin Ulcer) (Aspirin Ulcer; 50 mg/kg): 11 percentage of inhibition; LD50 (Rat; Oral): > 5,000 mg/kg; LD50 (Rat; Subcutaneous): > 2,500 mg/kg; percentage of healing (Acetic Acid Ulcer) (Acetic Acid Ulcer; 500 mg/kg): 38 percentage of healing; percentage of inhibition (Stress Ulcer) (Stress Ulcer; 500 mg/kg): 50 percentage of inhibition
